From patent publication US10385022B2, “3-amino-pyridines as GPBAR1 agonists” (HOFFMANN-LA ROCHE INC., priority 2011, dated 2019)

Each compound was assayed against human GPBAR1 receptor (Homo sapiens (Human), UniProt Q8TDU6) (assay: functional cAMP assay in CHO-dhfr(minus) cells expressing human GPBAR1 receptors). Details: CHO-dhfr(minus) cells expressing human GPBAR1, 30 min at 30° C.
Assay type: cell-based
Method in brief: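 Functional cAMP responses in a human GPBAR1-transfected CHO-dhfr- clone, picked using lithocholic acid as agonist, gave the EC50 values. Parallel testing in untransfected CHO cells served as a specificity control.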

human GPBAR1 receptor, sequence (Q8TDU6 whole entry): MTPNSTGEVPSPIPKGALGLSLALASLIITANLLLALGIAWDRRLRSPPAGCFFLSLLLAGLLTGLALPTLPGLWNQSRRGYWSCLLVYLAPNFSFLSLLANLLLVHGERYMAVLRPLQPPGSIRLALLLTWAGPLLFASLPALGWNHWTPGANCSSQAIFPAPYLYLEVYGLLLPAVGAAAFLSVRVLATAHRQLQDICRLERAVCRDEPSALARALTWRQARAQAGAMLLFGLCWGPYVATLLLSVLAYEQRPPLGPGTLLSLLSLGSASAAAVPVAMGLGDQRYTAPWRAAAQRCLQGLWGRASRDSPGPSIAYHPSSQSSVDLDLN

Going from `COc1cc(F)c(F)cc1-c1ccncc1N(C)C(=O)c1cc(C(F)(F)F)nc(C(F)(F)F)c1` [Example 144, N-[4-(4,5-Difluoro-2-methoxy-phenyl)-pyridin-3-yl]-N-methyl-2,6-bis-trifluoromethyl-isonicotinamide] to `COc1cc(F)c(F)cc1-c1ccncc1N(CC(F)(F)F)C(=O)c1cc(F)cc(C(F)(F)F)c1` [Example 132, N-[4-(4,5-Difluoro-2-methoxy-phenyl)-pyridin-3-yl]-3-fluoro-N-(2,2,2-trifluoro-ethyl)-5-trifluoromethyl-benzamide], the EC50 rises from 0.022 µM to 1.33 µM (60-fold). The first is the more potent here.

First: Cc1cc(Cl)cc(C(=O)N(C)c2cnccc2-c2ccccc2C)n1 [Example 122, 4-Chloro-6-methyl-pyridine-2-carboxylic acid methyl-(4-o-tolyl-pyridin-3-yl)-amide]
Second: Cc1ccccc1-c1ccncc1N(C)C(=O)c1cc(Cl)cc(OC(F)(F)F)c1 [Example 100, 3-Chloro-N-methyl-N-(4-o-tolyl-pyridin-3-yl)-5-trifluoromethoxy-benzamide]
The EC50 of the first is 12-fold higher: 2.43 µM for the first, 0.207 µM for the second. The second is the more potent here.

`COc1ccc(F)c(-c2ccncc2N(C)C(=O)c2cc(C(F)(F)F)cc(C(F)(F)F)c2)c1` [Example 63, N-[4-(2-Fluoro-5-methoxy-phenyl)-pyridin-3-yl]-N-methyl-3,5-bis-trifluoromethyl-benzamide] and `COc1ncc(F)cc1-c1ccncc1N(C)C(=O)c1cc(C(F)(F)F)cc(C(F)(F)F)c1` [Example 44, N-(5-Fluoro-2-methoxy-[3,4′]bipyridinyl-3′-yl)-N-methyl-3,5-bis-trifluoromethyl-benzamide] are within 1.5-fold of each other in EC50: 0.023 µM for the first, 0.03 µM for the second.

First: COc1cc(F)c(F)cc1-c1ccncc1N(CC(F)(F)F)C(=O)c1cc(C(F)(F)F)cc(S(=O)(=O)N(C)C)c1 [Example 140, N-[4-(4,5-Difluoro-2-methoxy-phenyl)-pyridin-3-yl]-3-dimethylsulfamoyl-N-(2,2,2-trifluoro-ethyl)-5-trifluoromethyl-benzamide]
Second: COc1cc(F)ccc1-c1ccncc1N(Cc1nccn1C)C(=O)c1cc(C(F)(F)F)cc(S(C)(=O)=O)c1 [Example 250, N-[4-(4-Fluoro-2-methoxy-phenyl)-pyridin-3-yl]-3-methanesulfonyl-N-(1-methyl-1H-imidazol-2-ylmethyl)-5-trifluoromethyl-benzamide]
The EC50 of the first is 24-fold lower: 0.124 µM for the first, 2.96 µM for the second. The first is the more potent here.

`COc1cc(F)ccc1-c1ccncc1N(C)C(=O)c1cc(OC(F)(F)F)cc(S(C)(=O)=O)c1` [Example 252, N-[4-(4-Fluoro-2-methoxy-phenyl)-pyridin-3-yl]-3-methanesulfonyl-N-methyl-5-trifluoromethoxy-benzamide] and `COc1cc(F)ccc1-c1ccncc1N(C)C(=O)c1cc(SCCNS(C)(=O)=O)cc(C(F)(F)F)c1` [Example 262, N-[4-(4-Fluoro-2-methoxy-phenyl)-pyridin-3-yl]-3-(2-methanesulfonylamino-ethylsulfanyl)-N-methyl-5-trifluoromethyl-benzamide] are within 1.5-fold of each other in EC50: 0.17 µM for the first, 0.231 µM for the second.

`COC(=O)c1ccc(C)c(-c2ccncc2N(C)C(=O)c2cc(C(F)(F)F)cc(C(F)(F)F)c2)c1` [Example 83, 3-{3-[(3,5-Bis-trifluoromethyl-benzoyl)-methyl-amino]-pyridin-4-yl}-4-methyl-benzoic acid methyl ester] and `Cc1cnccc1-c1ccncc1N(C)C(=O)c1cc(C(F)(F)F)cc(C(F)(F)F)c1` [Example 34, N-Methyl-N-(3′-methyl-[4,4′]bipyridinyl-3-yl)-3,5-bis-trifluoromethyl-benzamide] are within 1.5-fold of each other in EC50: 0.376 µM for the first, 0.502 µM for the second.

Compared with `COc1cc(F)ccc1-c1ccncc1N(CC1CCCO1)C(=O)c1cc(C(F)(F)F)cc(S(C)(=O)=O)c1` (single isomer, unassigned; (+)) [Example 232, (+)-N-[4-(4-Fluoro-2-methoxy-phenyl)-pyridin-3-yl]-3-methanesulfonyl-N-[1-(tetrahydro-furan-2-yl)methyl]-5-trifluoromethyl-benzamide], `COc1cc(F)ccc1-c1ccnc(C)c1N(C)C(=O)c1cc(C(F)(F)F)cc(S(C)(=O)=O)c1` [Example 230, N-[4-(4-Fluoro-2-methoxy-phenyl)-2-methyl-pyridin-3-yl]-3-methanesulfonyl-N-methyl-5-trifluoromethyl-benzamide] is 4.6-fold lower in EC50: 0.335 µM for the first, 0.073 µM for the second. The second is the more potent here.

Going from `CN(C(=O)c1cc(C(F)(F)F)cc(C(F)(F)F)c1)c1cnccc1-c1ccccc1Cl` [Example 78, N-[4-(2-Chloro-phenyl)-pyridin-3-yl]-N-methyl-3,5-bis-trifluoromethyl-benzamide] to `CN(C(=O)c1cc(O)cc(C(F)(F)F)c1)c1cnccc1-c1ccccc1Cl` [Example 79, N-[4-(2-Chloro-phenyl)-pyridin-3-yl]-3-hydroxy-N-methyl-5-trifluoromethyl-benzamide], the EC50 rises from 0.021 µM to 1.38 µM (66-fold). The first is the more potent here.

Compared with `COc1cc(F)ccc1-c1cc(C)ncc1N(C)C(=O)c1cc(SC2COC2)cc(C(F)(F)F)c1` [Example 310, N-[4-(4-Fluoro-2-methoxy-phenyl)-6-methyl-pyridin-3-yl]-N-methyl-3-(oxetan-3-ylsulfanyl)-5-trifluoromethyl-benzamide], `COc1cc(F)ccc1-c1ccncc1N(C)C(=O)c1cc(SC2CNC2)cc(C(F)(F)F)c1` [Example 275, 3-(Azetidin-3-ylsulfanyl)-N-[4-(4-fluoro-2-methoxy-phenyl)-pyridin-3-yl]-N-methyl-5-trifluoromethyl-benzamide] is 30-fold higher in EC50: 0.041 µM for the first, 1.23 µM for the second.

Going from `Cc1ccccc1-c1ccncc1N(C)C(=O)c1cc(C(F)(F)F)cc(C(F)(F)F)n1` [Example 190, 4,6-Bis-trifluoromethyl-pyridine-2-carboxylic acid methyl-(4-o-tolyl-pyridin-3-yl)-amide] to `Cc1ccccc1-c1ccncc1N(C)C(=O)c1cccc(C(F)(F)F)c1` [Example 2, N-Methyl-N-(4-o-tolyl-pyridin-3-yl)-3-trifluoromethyl-benzamide], the EC50 rises from 0.089 µM to 0.727 µM (8.2-fold).

First: O=C(c1cc(C(F)(F)F)nc(C(F)(F)F)c1)N(CC(F)(F)F)c1cnccc1-c1ccccc1F [Example 151, N-[4-(2-Fluoro-phenyl)-pyridin-3-yl]-N-(2,2,2-trifluoro-ethyl)-2,6-bis-trifluoromethyl-isonicotinamide]
Second: COc1ccc(-c2ccncc2N(C)C(=O)c2cc(C(F)(F)F)cc(C(F)(F)F)c2)cn1 [Example 99, N-(6-Methoxy-[3,4′]bipyridinyl-3′-yl)-N-methyl-3,5-bis-trifluoromethyl-benzamide]
The EC50 of the first is 63-fold lower: 0.047 µM for the first, 2.94 µM for the second.

First: COc1cccc(F)c1-c1ccncc1N(C)C(=O)c1cc(C(F)(F)F)cc(S(C)(=O)=O)c1 [Example 205, N-[4-(2-Fluoro-6-methoxy-phenyl)-pyridin-3-yl]-3-methanesulfonyl-N-methyl-5-trifluoromethyl-benzamide]
Second: CN(C(=O)c1cc(C(F)(F)F)cc(S(C)(=O)=O)c1)c1cnccc1-c1ccccc1 [Example 323, 3-Methanesulfonyl-N-methyl-N-(4-phenyl-pyridin-3-yl)-5-trifluoromethyl-benzamide]
The EC50 of the first is 6.1-fold lower: 0.017 µM for the first, 0.104 µM for the second.

Compared with `Cc1ccccc1-c1ccncc1N(C)C(=O)c1cc(C(F)(F)F)cc(S(=O)(=O)N(C)C)c1` [Example 128, 3-Dimethylsulfamoyl-N-methyl-N-(4-o-tolyl-pyridin-3-yl)-5-trifluoromethyl-benzamide], `Cc1nc(C)c(-c2ccncc2N(C)C(=O)c2cc(C(F)(F)F)cc(C(F)(F)F)c2)s1` [Example 209, N-[4-(2,4-Dimethyl-thiazol-5-yl)-pyridin-3-yl]-N-methyl-3,5-bis-trifluoromethyl-benzamide] is 51-fold higher in EC50: 0.029 µM for the first, 1.47 µM for the second. The first is the more potent here.
